Experimental data: publication PMC2033796, “Mechanisms of acquired resistance to the quinazoline thymidylate synthase inhibitor ZD1694 (Tomudex) in one mouse and three human cell lines” (British Journal of Cancer, 1995)

Target: T1, TS isolated from human ovarian CH1 cells (CH1 TS) (Homo sapiens, UniProt P04818)
T1 construct: gene TYMS; native enzyme partially purified from CH1 ovarian tumour cells (parental line), no tag
Test: 3H release from [[…]-3H]dUMP, non-linear regression
Type: biochemical

T1 sequence (P04818 2-313): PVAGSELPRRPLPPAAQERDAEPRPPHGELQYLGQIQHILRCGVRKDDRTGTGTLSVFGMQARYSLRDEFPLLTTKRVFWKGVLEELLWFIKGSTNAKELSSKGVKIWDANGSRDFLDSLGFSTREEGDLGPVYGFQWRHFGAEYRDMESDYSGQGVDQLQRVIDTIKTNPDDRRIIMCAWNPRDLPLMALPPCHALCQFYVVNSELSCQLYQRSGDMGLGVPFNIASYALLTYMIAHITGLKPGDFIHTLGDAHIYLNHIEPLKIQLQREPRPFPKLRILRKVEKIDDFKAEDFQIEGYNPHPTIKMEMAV

With `Cc1nc2ccc(CN(C)c3ccc(C(=O)N[C@@H](CCC(=O)N[C@@H](CCC(=O)N[C@@H](CCC(=O)O)C(=O)O)C(=O)O)C(=O)O)s3)cc2c(=O)[nH]1` [ZD1694 triglutamate] the Ki was 1.6 ± 0.1 nM.
